# From PMC11343776 (Clinical Pharmacokinetics, 2024)
# Entries after “also recorded” stand apart in the source; their conditions may differ.
# How the values were obtained:
# CYP3A4 = conditions: single dose capivasertib 80 mg; cited from earlier work
# [1] = Model simulations and covariate assessment; parameters: species or system patients with advanced or metastatic solid tumours; conditions: for decrease of CL/F after approximately 120 h: multiple doses
# [2] = healthy subjects; cited from earlier work
# [3] = dose range 80–800 mg; cited from earlier work
# [4] = Population pharmacokinetic model of capivasertib plasma concentrations; type: in vivo, patients with advanced or metastatic solid tumours
# ROCK1/2 = experiment: In vitro cellular kinase inhibition: ROCK1/2; type: cell-based
# CYP3A = conditions: capivasertib 400 mg b.i.d., intermittent schedule; cited from earlier work
# [5] = 400 mg b.i.d. (4/3) after multiple doses
# [6] = body weight 47 kg vs 67 kg reference
structure (smiles),measurement,setting,value
NC1(C(=O)N[C@@H](CCO)c2ccc(Cl)cc2)CCN(c2nc[nH]c3nccc2-3)CC1 [capivasertib],increase of capivasertib AUC by itraconazole,CYP3A4,95%
same,"median AUC12h,ss",[1]; [5],7730 ng·h/mL
same,"median Cmax,ss",[1]; [5],1340 ng/mL
same,decrease of CL/F after approximately 120 h,[1]; 400 mg b.i.d.,18%
same,decrease of CL/F after approximately 120 h,[1]; 480 mg b.i.d.,22%
same,dose proportionality of AUC and Cmax,[1]; 80–480 mg after multiple doses,proportional; also recorded: approximately proportionally
same,dose proportionality of AUC and Cmax,[1]; beyond 480 mg after multiple doses,more than proportional; also recorded: more than proportionally
same,"increase in AUC12h,ss",[1]; [6],14%
same,"increase in Cmax,ss",[1]; [6],14%
same,reduction in CLss/F,[1]; [6],12%
same,predicted impact of significant covariates on exposure to capivasertib,"[1]; body weight, dose, paclitaxel, food, formulation",< 20%
same,increase in CLss/F,[1]; concomitant paclitaxel vs no paclitaxel,20%
same,time after which steady state is achieved,"[1]; simulations, three schedules, different dose levels",approximately 120 h
same,renal clearance as share of total clearance,[2],21%
same,dose proportionality of plasma exposure,[3],approximately dose proportional
same,terminal half-life (t½),[3],approximately 10 hours
same,"terminal half-life (t½), range",[3],7 to 15 h
same,effective t½,[4]; 400 mg b.i.d. (4/3),8.34 h
same,apparent volume of distribution at steady state,[4]; at 400 mg,255.6 L
same,Lag1_tab absorption lag time for tablets,"[4]; final model estimate, semi-fasted or fed",0.21 h
same,fraction of dose absorbed by zero-order process,[4]; oral,20%
same,fraction of dose absorbed using the first-order mechanism,[4]; oral,80%
same,time to maximum concentration,"[4]; slight variations with dose level, body weight, food status",1.4 h
same,inhibition of ROCK-mediated phosphorylation of cofilin,ROCK1/2,not effective
same,increase in midazolam exposure,CYP3A,up to 75%
